Laboratory results taken from US9744146B2, “Method for alleviating disturbance of bile acid metabolism, amino acid metabolism, and/or gut microbiota metabolism” (China Medical University, priority 2013, dated 2017).

How the values were obtained:
[1] = system: mouse; details: cited from earlier work
[2] = system: amino acid metabolism; assay: Analysis of amino acid metabolism markers by NMR in serum of high-fat-diet mice; type: in vivo, C57BL6/J male mice; details: gallic acid 100 mg/kg orally daily (the third group)
Protocol: (§1) The gallic acid is purchased from Sigma, U.S.A.
(§2) In addition, to ensure experimental stability, the mice in the first and second group were given water at a volume the same as that in the third and fourth group. At the age of 16-week-old, the urine of the mice was collected, and the concentration of the blood glucose and serum insulin were measured. Then, the mice were sacrificed, and the serum was collected for the analysis of metabolic markers. The liver was weighted and photographed.
(§3) The collected blood and urine were analyzed by a nuclear magnetic resonance spectrum. The steps are shown as follows. • (1) Urine: The urine (500 μl), PBS (50 μl) (81:19 vol/vol, comprising 0.2 M NaHPO4 and 0.2 M NaH2PO4, pH=7.4), 10% deuteroxide, and 0.03% trimethylsilyl propionate (TSP) were mixed in a micro-centrifuge tube and centrifuged with 13000 rpm for 20 minutes at 4° C. The supernatant (500 μl) was collected and analyzed by 600 MHz nuclear magnetic resonance (NMR, Bruker AVANCE 600AV) at 25° C. The 1D NOESY FID signal was transferred to a one-dimensional NMR spectrum of graphing through Fourier transform. • (2) Blood: The serum (250 μl) and deuteroxide (350 μl) were mixed in a micro-centrifuge tube and centrifuged with 13000 rpm for 20 minutes at 4° C. The supernatant (500 μl) was collected and analyzed. The metabolites in serum were analyzed by using NMR sequence CPMG.
It has been known that the concentration of isoleucine, leucine, valine, glutamate, glutamine, tyrosine, phenylalanine, alanine, lysine, arginine and ornithine can be used as the markers of amino acid metabolism (see Rare Disease Diet Control Manual—amino acid metabolism, Foundation for Rare Disorders, pages 18, 22, 26-31, which is entirely incorporated hereinto by reference). Therefore, the integrated area of the spectrum of isoleucine (chemical shift 1.01 ppm dublet), the leucine (chemical shift 0.97 ppm triplet) and the valine (chemical shift 1.04 ppm doublet) in the serum were analyzed.

[3] = system: gut microbiota metabolism; assay: Analysis of gut microbiota metabolism markers by NMR in serum and urine of high-fat-diet mice; type: in vivo, C57BL6/J male mice; details: gallic acid 100 mg/kg orally daily (the third group)
Protocol: as §1, §2, §3
It has been known that the concentration of isobutyric acid, butanoic acid, hippuric acid, dimethylamine and trimethylamine can be used as the markers of the gut microbiota metabolism and reflect the change of gut microbiota. Therefore, the integrated area of the spectrum of isobutyric acid, butanoic acid, hippuric acid, dimethylamine and trimethylamine in the blood and urine were analyzed.

[4] = system: nonalcoholic fatty liver and insulin resistance in mice induced by the high-fat-diet; assay: Liver weight, blood glucose, serum insulin and liver pathology in high-fat-diet mice; type: in vivo, C57BL6/J male mice; details: gallic acid 50 or 100 mg/kg orally daily, compared to the high-fat-diet group
Protocol: as §1, §2

[5] = system: bile acid metabolism; assay: Analysis of bile acid metabolism markers (glycine, taurine) by NMR in serum and urine of high-fat-diet mice; type: in vivo, C57BL6/J male mice; details: gallic acid 100 mg/kg orally daily (the third group), 16-week-old
Protocol: as §1, §2, §3
It has been known that the concentration of taurine and glycine can be used as markers of bile acid metabolism (see Miyazaki T, Matsuzaki Y (2012) Taurine and liver diseases: a focus on the heterogeneous protective properties of taurine. Amino Acids, which is entirely incorporated hereinto by reference). Therefore, the integrated area of the spectrum of glycine (chemical shift 3.56 ppm singlet) and the taurine (chemical shift 3.40 ppm triplet) in the blood and urine were analyzed.

O=C(O)c1cc(O)c(O)c(O)c1 [gallic acid]
No Observed Adverse Effect Level (NOAEL) [1]: greater than 5000 mg/kg
alanine, integrated area of NMR spectrum [2]: 96.11 ± 6.07 the normalized and transferred NMR signal × 10^3
arginine, integrated area of NMR spectrum [2]: 30.08 ± 0.78 the normalized and transferred NMR signal × 10^3
glutamate, integrated area of NMR spectrum [2]: 39.50 ± 1.39 the normalized and transferred NMR signal × 10^3
glutamine, integrated area of NMR spectrum [2]: 40.61 ± 3.88 the normalized and transferred NMR signal × 10^3
isoleucine, integrated area of NMR spectrum [2]: 32.29 ± 3.25 the normalized and transferred NMR signal × 10^3
leucine, integrated area of NMR spectrum [2]: 109.28 ± 2.36 the normalized and transferred NMR signal × 10^3
lysine, integrated area of NMR spectrum [2]: 74.93 ± 2.24 the normalized and transferred NMR signal × 10^3
ornithine, integrated area of NMR spectrum [2]: 36.39 ± 1.45 the normalized and transferred NMR signal × 10^3
phenylalanine, integrated area of NMR spectrum [2]: 6.44 ± 0.39 the normalized and transferred NMR signal × 10^3
tyrosine, integrated area of NMR spectrum [2]: 6.78 ± 0.85 the normalized and transferred NMR signal × 10^3
valine, integrated area of NMR spectrum [2]: 68.26 ± 3.46 the normalized and transferred NMR signal × 10^3
isobutyric acid, integrated area of NMR spectrum ([3]; serum): 22.49 ± 1.55
butanoic acid, integrated area of NMR spectrum ([3]; urine): 187.08 ± 10.46
dimethylamine, integrated area of NMR spectrum ([3]; urine): 197.9 ± 9.20
hippuric acid, integrated area of NMR spectrum ([3]; urine): 10.33 ± 0.90
trimethylamine, integrated area of NMR spectrum ([3]; urine): 269.21 ± 76.77
effect on nonalcoholic fatty liver induced by the high-fat-diet ([4]; FIGS. 1, 4A, 4B): ameliorating
effect on insulin resistance induced by the high-fat-diet ([4]; FIGS. 2, 3): ameliorating
glycine, integrated area of NMR spectrum ([5]; serum): 142.91 ± 10.60 the normalized and transferred NMR signal × 10^3
glycine, integrated area of NMR spectrum ([5]; urine): 206.51 ± 8.45 the normalized and transferred NMR signal × 10^3
taurine, integrated area of NMR spectrum ([5]; urine): 489.81 ± 125.78 the normalized and transferred NMR signal × 10^3
